# According to publication PMC5681660, “Reduced hepatitis B and D viral entry using clinically applied drugs as novel inhibitors of the bile acid transporter NTCP” (Scientific Reports, 2017):
# Where a name gives a salt, the structure may show the parent alone.
# Target: T1, human NTCP (Homo sapiens, UniProt Q14973)
# T1 sequence (Q14973 1-349): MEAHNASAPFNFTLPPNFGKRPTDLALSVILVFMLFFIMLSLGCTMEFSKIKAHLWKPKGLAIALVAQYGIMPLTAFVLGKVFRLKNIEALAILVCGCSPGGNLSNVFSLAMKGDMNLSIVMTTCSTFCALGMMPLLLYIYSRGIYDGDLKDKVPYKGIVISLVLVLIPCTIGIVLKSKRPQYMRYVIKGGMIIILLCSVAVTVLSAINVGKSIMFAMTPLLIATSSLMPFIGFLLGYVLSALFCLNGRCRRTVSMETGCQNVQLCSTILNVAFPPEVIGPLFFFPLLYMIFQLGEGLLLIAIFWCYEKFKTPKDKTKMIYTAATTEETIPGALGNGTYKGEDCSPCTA
# Assay: Screening taurocholate uptake assay (96-well, [14C]taurocholate, 10 µM drug)
# Conditions: for B-score functional assay: screening taurocholate uptake, 10 µM drug
# [1] = combined ranking of functional and binding screening assays
# [2] = ranking over the functional and the binding screening assay
Compound,"position among the hits of the screen (combined ranking of both screening assays) (1280 drugs at 10 µM, TC uptake and Myrcludex B binding screens combined)",Ranking score [1],B-score functional assay,Ranking score [2],B-score functional assay (B-score)
C[C@H](CCC(=O)O)[C@H]1CC[C@H]2[C@@H]3[C@H](O)C[C@@H]4C[C@H](O)CC[C@]4(C)[C@H]3CC[C@]12C [chenodeoxycholic acid],≤ 150,–,–,–,–
CC[N+](CC)(CC)CCC(O)(c1ccccc1)C1CCCCC1.[Cl-] (stereo not shown) [Tridihexethyl chloride],–,474.251,0.93,–,–
CCC1(CC)C(=O)C=CNC1=O [Pyrithyldione],–,558.14,0.404,–,–
Cc1cc(C(C#N)c2ccc(Cl)cc2)c(Cl)cc1NC(=O)c1cc(I)cc(I)c1O (stereo not shown) [Closantel],–,–,-0.508,203.568,–
C=CC1=C(C(=O)O)N2C(=O)[C@@H](NC(=O)/C(=N\O)c3csc(N)n3)[C@H]2SC1 [Cefdinir],–,598.124,-0.454,–,–
C[n+]1ccccc1/C=N/O [Pralidoxime chloride],–,600.675,-0.006,–,–
C[C@]12CC[C@@H]3c4ccc(O)cc4CC[C@H]3[C@@H]1CC[C@@H]2O [Estradiol-17 beta],–,–,-4.121,76.8375,–
Oc1c(Cl)cc(Cl)c2cccnc12 [Chloroxine],–,538.476,-0.339,–,–
Cc1cccc(Nc2ccccc2C(=O)O)c1C [Mefenamic acid],–,–,-1.919,180.289,–
Nc1nc2[nH]cc(CCc3ccc(C(=O)N[C@@H](CCC(=O)O)C(=O)O)cc3)c2c(=O)[nH]1 [Pemetrexed disodium],–,–,-1.364,234.359,–
CC[N+](C)(CC)CCC[n+]1c(-c2ccccc2)c2cc(N)ccc2c2ccc(N)cc21.[I-].[I-] [Propidium iodide],–,504.845,-1.35,–,–
CCCCOc1ccc(CC(=O)NO)cc1 [Bufexamac],–,–,-0.678,265.556,–
O=S(=O)(O)CCS [Mesna],–,–,-1.329,127.75,–
N#Cc1ccc(C(c2ccc(C#N)cc2)n2cncn2)cc1 [Letrozole],–,610.1,1.169,–,–
CS(=O)(=O)OCCCCOS(C)(=O)=O [Busulfan],–,–,-1.026,269.796,–
CC(=O)NC[C@H]1CN(c2ccc(N3CCOCC3)c(F)c2)C(=O)O1 [Linezolid],–,–,-1.549,172.974,–
CC[C@H](C)[C@H]1O[C@]2(CC[C@@H]1C)C[C@@H]1C[C@@H](C/C=C(\C)[C@@H](O[C@H]3C[C@H](OC)[C@@H](O[C@H]4C[C@H](OC)[C@@H](O)[C@H](C)O4)[C@H](C)O3)[C@@H](C)/C=C/C=C3\CO[C@@H]4[C@H](O)C(C)=C[C@@H](C(=O)O1)[C@]34O)O2 [Ivermectin],–,–,-2.693,56.4978,–
CCc1nn(CCCN2CCN(c3cccc(Cl)c3)CC2)c(=O)n1CCOc1ccccc1 [Nefazodone HCl],–,–,-1.389,227.321,–
C/C=C(\C)C(=O)O[C@H]1[C@H](OC(C)=O)[C@@]2(CO)C(CC1(C)C)C1=CC[C@@H]3[C@@]4(C)CC[C@H](O[C@@H]5O[C@H](C(=O)O)[C@@H](O[C@@H]6O[C@H](CO)[C@@H](O)[C@H](O)[C@H]6O)[C@H](O)[C@H]5O[C@@H]5O[C@H](CO)[C@@H](O)[C@H](O)[C@H]5O)[C@H](CO)C4CC[C@@]3(C)[C@@]1(C)C[C@H]2O (stereo partly drawn) [Beta-Escin],–,–,-8.059,8.485,–
OCCN1CCN(CCCN2c3ccccc3Sc3ccc(C(F)(F)F)cc32)CC1 [Fluphenazine dihydrochloride],–,–,-4.102,99.0152,–
CNCC(O)c1ccc(O)c(O)c1 (stereo not shown) [Racepinephrine HCl],–,629.338,-0.581,–,–
C#C[C@]1(O)CC[C@H]2[C@@H]3CCC4=CC(=O)CC[C@@H]4[C@H]3CC[C@@]21C [Norethindrone],–,–,-0.48,274.683,–
NC(=NCc1ccccc1)NC(=O)c1nc(Cl)c(N)nc1N [Benzamil hydrochloride],–,519.299,-0.089,–,–
C#C[C@]1(OC(C)=O)CC[C@H]2[C@@H]3CCC4=C[C@@H](OC(C)=O)CC[C@@H]4[C@H]3CC[C@@]21C [Ethynodiol diacetate],–,–,-1.671,238.458,–
CSc1ccc2c(c1)N(CCC1CCCCN1C)c1ccccc1S2 (stereo not shown) [Thioridazine hydrochloride],–,–,0.02,203.814,–
CO[C@H]1/C=C/O[C@@]2(C)Oc3c(C)c(O)c4c(O)c(c5c(nc6cc(C)ccn65)c4c3C2=O)NC(=O)/C(C)=C\C=C\[C@H](C)[C@H](O)[C@@H](C)[C@@H](O)[C@@H](C)[C@H](OC(C)=O)[C@@H]1C [Rifaximin],–,627.999,-0.408,–,–
CC(C)NCC(O)COc1ccc(CCOCC2CC2)cc1 (stereo not shown) [Betaxolol hydrochloride],–,583.493,0.038,–,–

Compound,"position among the hits of the screen (combined ranking of both screening assays) (1280 drugs at 10 µM, TC uptake and Myrcludex B binding screens combined)",Ranking score [1],B-score functional assay,Ranking score [2],B-score functional assay (B-score)
CC#C[C@]1(O)CC[C@H]2[C@@H]3CCC4=CC(=O)CCC4=C3[C@@H](c3ccc(N(C)C)cc3)C[C@@]21C [Mifepristone],–,–,-2.267,246.499,–
Cc1cccc(C)c1NC(=O)C1CCCCN1C (stereo not shown) [Mepivacaine hydrochloride],–,–,-0.918,206.427,–
[H]/N=C(/N)N[C@H]1[C@H](O)[C@@H](O)[C@H](O[C@@H]2O[C@@H](C)[C@](O)(C=O)[C@H]2O[C@@H]2O[C@@H](CO)[C@H](O)[C@@H](O)[C@@H]2NC)[C@@H](N/C(N)=N\[H])[C@@H]1O [Streptomycin sulfate],–,–,1.326,115.983,–
CC(C)NNC(=O)c1ccncc1.O=P(O)(O)O [Iproniazide phosphate],–,542.692,0.714,–,–
O=C(O)CCCC[C@@H]1SC[C@@H]2NC(=O)N[C@@H]21 [Biotin],–,–,-2.274,66.9328,–
CN(C)C(=O)Oc1cc(OC(=O)N(C)C)cc(C(O)CNC(C)(C)C)c1.Cl (stereo not shown) [Bambuterol hydrochloride],–,562.701,-0.006,–,–
O=c1c2ccccc2[se]n1-c1ccccc1 [Ebselen],–,–,-4.734,12.2474,–
CC[C@H](c1ccc(O)cc1)[C@@H](CC)c1ccc(O)cc1 [Hexestrol],–,–,-5.763,43.1277,–
C#CCN(C)CCCOc1ccc(Cl)cc1Cl [Clorgyline hydrochloride],–,645.563,0.335,–,–
"Cl.OC(CCN1CCCCC1)(c1ccccc1)C1CCCCC1 (stereo not shown) [Trihexyphenidyl-D,L Hydrochloride]",–,472.758,0.458,–,–
CNC(=O)Oc1ccc2c(c1)[C@]1(C)CCN(C)[C@@H]1N2C [Eserine hemisulfate salt],–,–,-0.074,269.255,–
Cc1cc(C(=O)NNCc2ccccc2)no1 [Isocarboxazid],–,552.74,0.681,–,–
Cl.Cl.OCCN1CCN(CC/C=C2/c3ccccc3Sc3ccc(Cl)cc32)CC1 [Zuclopenthixol dihydrochloride],–,–,-0.306,243.28,–
NS(=O)(=O)c1cc(C(=O)O)cc(N2CCCC2)c1Oc1ccccc1 [Piretanide],–,548.109,-0.384,–,–
CNCCC(Oc1ccc(C(F)(F)F)cc1)c1ccccc1 (stereo not shown) [Fluoxetine hydrochloride],–,–,–,265.518,–
CN(C)C(=O)Oc1ccc[n+](C)c1.[I-] [Pyridostigmine iodide],–,1177.01,–,–,1.154
O=c1[nH]c(=O)n(C2CCCO2)cc1F (stereo not shown) [Tegafur],–,518.446,-0.939,–,–
NCCc1c[nH]c2ccc(O)cc12 [Serotonin hydrochloride],–,–,0.952,107.778,–
Cc1cc(=O)n(-c2ccccc2)n1C [Antipyrine],–,–,-1.958,172.864,–
NC(=O)OCC(O)COc1ccc(Cl)cc1 (stereo not shown) [Chlorphensin carbamate],–,1211.24,–,–,3.271
CCC1(C)CC(=O)NC(=O)C1 [Bemegride],–,–,-2.979,76.1315,–
CC(=O)Oc1cccc2c1C(=O)c1c(OC(C)=O)cc(C(=O)O)cc1C2=O [Diacerein],–,–,-4.175,199.08,–
CCOC(=O)Nc1ccc2c(c1)N(C(=O)CCN1CCOCC1)c1ccccc1S2 [Moricizine hydrochloride],–,1215.96,–,–,2.078
NC(CO)C(=O)NNCc1ccc(O)c(O)c1O (stereo not shown) [Benserazide hydrochloride],–,520.826,-0.402,–,–
CC1(C)S[C@@H]2[C@H](NC(=O)[C@H](C(=O)O)c3ccsc3)C(=O)N2[C@H]1C(=O)O [Ticarcillin sodium],–,–,-0.726,110.132,–
CN(C)CCOc1ccc(/C(=C(/CCCl)c2ccccc2)c2ccccc2)cc1 [Toremifene],–,537.181,0.057,–,–
C[C@@H](O)[C@H]1C(=O)N2C(C(=O)O)=C(SCCN=CN)C[C@H]12 [Imipenem],–,1154.72,–,–,1.996
